How the values were obtained:
Type in all cases: ADME
[1] = biological target: Cytochrome P450 2D6 (Homo sapiens, UniProt P10635); assay: Inhibition of CYP2D6 in human liver microsomes using dextromethorphan as substrate after 5 to 30 mins by LC-MS/MS analysis
[2] = biological target: T1, Cytochrome P450 3A4 (Homo sapiens, UniProt P08684); assay: Inhibition of CYP3A4 in human liver microsomes using testosterone as substrate after 5 to 30 mins by LC-MS/MS analysis
[3] = biological target: T2, Cytochrome P450 1A2 (Homo sapiens, UniProt P05177); assay: Inhibition of CYP1A2 in human liver microsomes using phenacetin as substrate after 5 to 30 mins by LC-MS/MS analysis
T2 sequence (P05177 whole entry): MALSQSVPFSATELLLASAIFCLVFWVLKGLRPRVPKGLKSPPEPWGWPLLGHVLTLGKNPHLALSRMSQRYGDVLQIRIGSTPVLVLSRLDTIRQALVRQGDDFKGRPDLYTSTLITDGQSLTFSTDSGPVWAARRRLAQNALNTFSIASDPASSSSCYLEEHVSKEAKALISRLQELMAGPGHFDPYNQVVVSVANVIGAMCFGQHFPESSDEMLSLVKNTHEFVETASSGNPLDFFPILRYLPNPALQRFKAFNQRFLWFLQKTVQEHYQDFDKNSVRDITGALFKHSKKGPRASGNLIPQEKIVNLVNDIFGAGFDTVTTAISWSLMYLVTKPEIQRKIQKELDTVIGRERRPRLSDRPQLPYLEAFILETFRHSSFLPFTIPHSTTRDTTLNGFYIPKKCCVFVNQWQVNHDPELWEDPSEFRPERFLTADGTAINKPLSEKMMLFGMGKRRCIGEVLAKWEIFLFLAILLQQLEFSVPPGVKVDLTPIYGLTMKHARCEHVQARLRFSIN

[4] = biological target: T3, Cytochrome P450 2C8 (Homo sapiens, UniProt P10632); assay: Linear mixed inhibition of CYP2C8 in human liver microsomes assessed as rosiglitazone demethylation after 20 mins by LC-MS/MS analysis
T3 sequence (P10632 whole entry): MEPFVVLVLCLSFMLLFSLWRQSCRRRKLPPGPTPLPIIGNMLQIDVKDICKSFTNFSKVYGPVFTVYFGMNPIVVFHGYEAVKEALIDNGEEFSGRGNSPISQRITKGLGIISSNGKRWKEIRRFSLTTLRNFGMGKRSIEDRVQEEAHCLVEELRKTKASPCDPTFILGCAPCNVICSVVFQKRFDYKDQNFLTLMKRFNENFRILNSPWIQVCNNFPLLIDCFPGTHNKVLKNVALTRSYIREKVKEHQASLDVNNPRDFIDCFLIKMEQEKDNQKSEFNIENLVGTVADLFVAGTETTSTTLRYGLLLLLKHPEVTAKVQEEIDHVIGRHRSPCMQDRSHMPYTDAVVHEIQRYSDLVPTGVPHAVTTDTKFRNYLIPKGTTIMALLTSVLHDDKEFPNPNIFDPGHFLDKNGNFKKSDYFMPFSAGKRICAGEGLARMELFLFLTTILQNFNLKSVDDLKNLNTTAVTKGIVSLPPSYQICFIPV

[5] = biological target: Cytochrome P450 2E1 (Homo sapiens, UniProt P05181); assay: Inhibition of CYP2E1 in human liver microsomes using chlorzoxazone as substrate after 5 to 30 mins by LC-MS/MS analysis
Cytochrome P450 2E1, sequence (P05181 whole entry): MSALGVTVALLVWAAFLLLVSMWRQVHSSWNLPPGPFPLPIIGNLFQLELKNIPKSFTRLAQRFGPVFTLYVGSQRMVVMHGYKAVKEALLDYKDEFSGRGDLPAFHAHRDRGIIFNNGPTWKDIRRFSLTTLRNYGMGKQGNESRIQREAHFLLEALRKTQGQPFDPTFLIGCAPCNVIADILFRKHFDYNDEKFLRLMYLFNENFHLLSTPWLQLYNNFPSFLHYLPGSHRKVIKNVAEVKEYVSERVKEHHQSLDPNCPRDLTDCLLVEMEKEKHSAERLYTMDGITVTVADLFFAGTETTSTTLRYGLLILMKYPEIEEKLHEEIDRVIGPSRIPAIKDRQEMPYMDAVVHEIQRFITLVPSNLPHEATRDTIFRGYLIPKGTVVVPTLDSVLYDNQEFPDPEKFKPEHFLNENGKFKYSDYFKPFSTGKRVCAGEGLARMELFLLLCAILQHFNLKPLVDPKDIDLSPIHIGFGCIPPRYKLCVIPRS

[6] = biological target: T1, Cytochrome P450 3A4; assay: Inhibition of CYP3A4 in human liver microsomes using midazolam as substrate after 5 to 30 mins by LC-MS/MS analysis
[7] = biological target: Cytochrome P450 2C9 (Homo sapiens, UniProt P11712); assay: Inhibition of CYP2C9 in human liver microsomes using diclofenac as substrate after 5 to 30 mins by LC-MS/MS analysis
Cytochrome P450 2C9, sequence (P11712 whole entry): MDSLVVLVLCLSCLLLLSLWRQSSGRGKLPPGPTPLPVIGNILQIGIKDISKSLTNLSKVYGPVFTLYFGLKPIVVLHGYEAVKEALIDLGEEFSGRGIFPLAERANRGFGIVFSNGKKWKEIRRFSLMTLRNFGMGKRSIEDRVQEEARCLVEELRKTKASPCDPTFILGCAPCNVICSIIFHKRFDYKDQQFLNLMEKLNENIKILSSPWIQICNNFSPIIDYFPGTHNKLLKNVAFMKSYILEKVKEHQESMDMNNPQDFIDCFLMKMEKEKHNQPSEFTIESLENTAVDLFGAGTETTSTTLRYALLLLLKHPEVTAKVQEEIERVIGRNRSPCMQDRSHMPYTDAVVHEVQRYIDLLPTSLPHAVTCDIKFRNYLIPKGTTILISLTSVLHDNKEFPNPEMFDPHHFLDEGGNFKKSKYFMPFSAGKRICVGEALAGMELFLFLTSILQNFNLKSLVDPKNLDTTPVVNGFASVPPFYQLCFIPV

[8] = biological target: Cytochrome P450 2C19 (Homo sapiens, UniProt P33261); assay: Inhibition of CYP2C19 in human liver microsomes using (S)-Mephenytoin as substrate after 5 to 30 mins by LC-MS/MS analysis
Cytochrome P450 2C19, sequence (P33261 whole entry): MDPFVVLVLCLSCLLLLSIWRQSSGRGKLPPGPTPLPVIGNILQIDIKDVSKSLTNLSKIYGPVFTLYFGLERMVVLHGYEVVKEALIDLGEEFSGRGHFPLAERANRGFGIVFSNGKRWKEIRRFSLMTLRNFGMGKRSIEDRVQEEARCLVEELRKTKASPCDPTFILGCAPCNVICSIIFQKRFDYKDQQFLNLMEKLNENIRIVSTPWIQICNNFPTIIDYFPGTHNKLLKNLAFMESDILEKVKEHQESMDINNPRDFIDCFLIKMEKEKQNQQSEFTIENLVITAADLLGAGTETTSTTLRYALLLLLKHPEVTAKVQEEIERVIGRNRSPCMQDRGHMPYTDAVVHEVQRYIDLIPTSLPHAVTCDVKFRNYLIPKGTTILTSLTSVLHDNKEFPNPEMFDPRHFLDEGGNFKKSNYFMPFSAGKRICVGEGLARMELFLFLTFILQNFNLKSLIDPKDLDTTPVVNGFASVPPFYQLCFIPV

[9] = biological target: T4, Cytochrome P450 2B6 (Homo sapiens, UniProt P20813); assay: Inhibition of CYP2B6 in human liver microsomes using bupropion as substrate after 5 to 30 mins by LC-MS/MS analysis
T4 sequence (P20813 whole entry): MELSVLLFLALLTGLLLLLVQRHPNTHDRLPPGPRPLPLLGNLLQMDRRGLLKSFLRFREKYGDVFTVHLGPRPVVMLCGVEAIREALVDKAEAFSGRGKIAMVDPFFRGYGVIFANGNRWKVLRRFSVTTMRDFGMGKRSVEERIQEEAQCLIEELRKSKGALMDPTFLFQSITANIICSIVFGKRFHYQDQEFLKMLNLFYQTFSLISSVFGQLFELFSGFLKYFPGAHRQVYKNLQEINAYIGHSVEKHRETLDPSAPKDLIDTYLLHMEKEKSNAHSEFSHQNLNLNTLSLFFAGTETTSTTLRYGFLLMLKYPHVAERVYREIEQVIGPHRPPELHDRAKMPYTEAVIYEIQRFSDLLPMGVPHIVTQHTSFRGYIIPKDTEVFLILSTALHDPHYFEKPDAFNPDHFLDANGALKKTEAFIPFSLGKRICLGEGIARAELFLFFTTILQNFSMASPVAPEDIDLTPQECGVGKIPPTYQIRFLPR

[10] = biological target: T3, Cytochrome P450 2C8; assay: Biphasic inhibition of CYP2C8 in human liver microsomes assessed as montelukast 36-hydroxylation after 20 mins by LC-MS/MS analysis
[11] = biological target: Cytochrome P450 3A7 (Homo sapiens, UniProt P24462); assay: Drug metabolism assessed as recombinant CYP3A7 (unknown origin)-mediated 2-(5-chloro-4-(2-(2-chloro-4-cyclopropylphenylsulfonamido)-4-(1-hydroxy-2-methylpropan-2-ylcarbamoyl)phenoxy)-2-fluorophenyl)acetic acid formation at 10 uM after 30 mins by LC-MS/MS analysis; details: recombinant enzyme, 0.5 h
Cytochrome P450 3A7, sequence (P24462 whole entry): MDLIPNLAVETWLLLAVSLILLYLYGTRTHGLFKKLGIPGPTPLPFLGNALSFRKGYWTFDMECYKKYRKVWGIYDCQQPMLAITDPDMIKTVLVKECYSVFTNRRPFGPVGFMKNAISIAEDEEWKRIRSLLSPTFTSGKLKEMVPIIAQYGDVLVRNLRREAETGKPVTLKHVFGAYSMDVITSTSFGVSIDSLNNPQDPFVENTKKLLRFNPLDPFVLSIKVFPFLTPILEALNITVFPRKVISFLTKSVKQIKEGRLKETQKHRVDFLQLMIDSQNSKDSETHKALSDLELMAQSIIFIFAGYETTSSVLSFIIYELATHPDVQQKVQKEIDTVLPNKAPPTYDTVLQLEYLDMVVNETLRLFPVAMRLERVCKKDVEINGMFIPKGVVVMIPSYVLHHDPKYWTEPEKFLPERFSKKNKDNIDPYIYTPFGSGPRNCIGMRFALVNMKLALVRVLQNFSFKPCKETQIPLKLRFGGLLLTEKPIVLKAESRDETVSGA

T1 sequence (P08684 whole entry): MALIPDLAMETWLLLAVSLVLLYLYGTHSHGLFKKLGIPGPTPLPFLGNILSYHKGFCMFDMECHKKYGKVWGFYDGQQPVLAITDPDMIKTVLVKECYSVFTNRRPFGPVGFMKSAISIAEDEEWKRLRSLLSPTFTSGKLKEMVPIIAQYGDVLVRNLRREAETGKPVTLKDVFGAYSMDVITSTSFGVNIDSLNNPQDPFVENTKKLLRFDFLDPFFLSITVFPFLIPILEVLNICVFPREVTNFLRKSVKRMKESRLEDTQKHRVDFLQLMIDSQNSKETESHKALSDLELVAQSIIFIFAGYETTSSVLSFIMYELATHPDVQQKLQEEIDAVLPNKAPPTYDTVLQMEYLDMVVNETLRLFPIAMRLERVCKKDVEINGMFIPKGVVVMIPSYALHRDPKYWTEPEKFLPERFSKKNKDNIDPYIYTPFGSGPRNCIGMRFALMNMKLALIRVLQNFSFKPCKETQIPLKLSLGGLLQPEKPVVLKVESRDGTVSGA
Cytochrome P450 2D6, sequence (P10635 whole entry): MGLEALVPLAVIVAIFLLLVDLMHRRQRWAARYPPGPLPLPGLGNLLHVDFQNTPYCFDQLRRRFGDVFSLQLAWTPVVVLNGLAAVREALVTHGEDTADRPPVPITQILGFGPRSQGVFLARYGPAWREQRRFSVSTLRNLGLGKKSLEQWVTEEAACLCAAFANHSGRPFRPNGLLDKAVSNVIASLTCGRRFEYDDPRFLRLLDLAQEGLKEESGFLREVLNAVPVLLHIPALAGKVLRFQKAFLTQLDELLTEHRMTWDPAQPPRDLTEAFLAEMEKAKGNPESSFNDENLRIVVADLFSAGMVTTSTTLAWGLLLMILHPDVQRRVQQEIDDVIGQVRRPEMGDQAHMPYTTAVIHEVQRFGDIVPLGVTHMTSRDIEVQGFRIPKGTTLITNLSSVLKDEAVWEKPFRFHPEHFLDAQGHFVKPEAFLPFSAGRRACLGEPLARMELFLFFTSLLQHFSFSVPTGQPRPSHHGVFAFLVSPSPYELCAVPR

| Ki [1] [µM] | Ki [2] [µM] | Ki [3] [µM] | Ki [4] [µM] | Ki [5] [µM] | Ki [6] [µM] | Ki [7] [µM] | Ki [8] [µM] | Ki [9] [µM] | Ki [10] [µM] | IC50 [1] [µM] | IC50 [2] [µM] | IC50 [3] [µM] | IC50 [5] [µM] | IC50 [6] [µM] | IC50 [7] [µM] | Drug metabolism [11] | IC50 [8] [µM] | IC50 [9] [µM] | SMILES |
| --- | --- | --- | --- | --- | --- | --- | --- | --- | --- | --- | --- | --- | --- | --- | --- | --- | --- | --- | --- |
| > 30 | > 30 | > 30 | 6.9 | > 30 | > 30 | > 30 | > 30 | > 30 | 7.3 | – | – | – | – | – | – | – | – | – | CC(C)(C)NC(=O)c1ccc(Oc2cc(F)c(CC(=O)O[C@@H]3O[C@H](C(=O)O)[C@@H](O)[C@H](O)[C@H]3O)cc2Cl)c(NS(=O)(=O)c2ccc(C3CC3)cc2Cl)c1 |
| > 30 | > 30 | > 30 | – | > 30 | > 30 | > 30 | > 30 | > 30 | 1.8 | ≥ 30 | ≥ 30 | ≥ 30 | ≥ 30 | ≥ 30 | ≥ 30 | metabolite_detected | ≥ 30 | ≥ 30 | CC(C)(C)NC(=O)c1ccc(Oc2cc(F)c(CC(=O)O)cc2Cl)c(NS(=O)(=O)c2ccc(C3CC3)cc2Cl)c1 [VIDUPIPRANT] |

Source: ChEMBL document CHEMBL3526017, “Predicting the drug interaction potential of AMG 853, a dual antagonist of the D-prostanoid and chemoattractant receptor-homologous molecule expressed on T helper 2 cells receptors” (Drug Metab Dispos, 2012)
